Patent publication US8338422B2, “Indolin-2-ones and aza-indolin-2-ones” (Janssen Pharmaceutica NV, priority 2007, dated 2012)
Where “and” joins values, the source holds several entries; their conditions need not be identical. Equal entries are not always repeated.

Experiments:
[1] = molecular target: GSK3β (h) (Homo sapiens, UniProt P49841); assay: GSK-3β human kinase assay (SPA); assay type: biochemical; settings: for IC50: read-out: GSK3B pIC50 (converted)
Procedure, shortened: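 Radiometric SPA read-out: after EDTA stop, biotinylated 33P-labelled peptide bound streptavidin PVT beads and was imaged on Leadseeker. Reaction: 60 min, room temperature, GSK3β (h) at 1 μg/ml, 1 μM substrate peptide, 1 μM ATP with 2 nM [γ-33P]ATP, Tris pH 7.4/MgCl2/DTT buffer.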

[2] = molecular target: CDK1/CyclinB (h) (Homo sapiens, UniProt P06493); assay: CDK1/CyclinB human kinase assay (FRET); assay type: biochemical; settings: for IC50: read-out: CDK1 pIC50 (converted)
Sequence of CDK1/CyclinB (h) (P06493 whole entry): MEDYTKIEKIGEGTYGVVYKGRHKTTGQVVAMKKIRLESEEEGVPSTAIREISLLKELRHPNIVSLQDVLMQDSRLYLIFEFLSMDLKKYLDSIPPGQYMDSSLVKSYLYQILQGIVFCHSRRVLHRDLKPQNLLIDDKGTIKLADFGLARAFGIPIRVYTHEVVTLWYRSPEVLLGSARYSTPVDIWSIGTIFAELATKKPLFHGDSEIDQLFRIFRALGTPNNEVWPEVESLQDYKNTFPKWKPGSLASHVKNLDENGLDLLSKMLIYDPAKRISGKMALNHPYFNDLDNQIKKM
Sequence of CDK1/CyclinB (h) (P14635 whole entry partner): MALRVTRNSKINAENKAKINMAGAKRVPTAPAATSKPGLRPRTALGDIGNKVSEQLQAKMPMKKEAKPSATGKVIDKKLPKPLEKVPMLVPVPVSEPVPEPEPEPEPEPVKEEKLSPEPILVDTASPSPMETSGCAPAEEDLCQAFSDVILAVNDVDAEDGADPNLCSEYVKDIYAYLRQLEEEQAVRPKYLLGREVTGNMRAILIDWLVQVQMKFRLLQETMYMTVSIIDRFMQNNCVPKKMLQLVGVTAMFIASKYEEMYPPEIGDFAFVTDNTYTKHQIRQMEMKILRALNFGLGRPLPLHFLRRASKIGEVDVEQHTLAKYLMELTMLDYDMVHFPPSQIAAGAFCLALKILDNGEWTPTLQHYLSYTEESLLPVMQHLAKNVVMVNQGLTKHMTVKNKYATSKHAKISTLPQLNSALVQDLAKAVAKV
Procedure, shortened: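 Kinase activity was read as the 460/538 nm emission ratio after protease cleavage of unphosphorylated peptide (60 min development). The reaction ran 60 min at room temperature with 10 μM ATP, 2 μM Ser/Thr peptide 12 and 0.2 μg/ml enzyme in Hepes pH 7.5 buffer with MgCl2, EGTA, Brij-35.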

[3] = tested on: U87MG; assay: Cellular proliferation assay (Alamar blue), U87MG; assay type: cell-based; settings: U87MG cells, 72 hours with compound, 10% FCS; for IC50: Homo sapiens, U-87 MG, 72 h, read-out: pIC50 U87MG (converted)
Experimental: (§1) […] functional properties of these compounds was tested in cellular proliferation assays on a panel of different cell lines in the presence of 10% FCS serum (37° C. and 5% (v/v) CO2). In a first step these cells were seeded and incubated for 24 hours in the absence of compound. In the second step the cells were incubated for 72 hours with the compounds to be tested for 72 hours. The viable cell number was finally assessed in a standard Alamar blue cell viability assay.
(§2) The viable cell number was assessed by incubation for either 4 h (HCT-116, H1299, H460) 6 h (SKOV3, HT29, U87-MG, Colo205) or 24 h (A2780, PC3, MDA-MB-231, A549, MCF-7) with Alamar blue (Resazurin 9 μg/ml, K-Ferrocyanide 90 μM K-Ferricyanide 90 μM) and the converted fluorescent product was quantified on a fluorescent plate readed (544 nm/590 nm). Effect of the compounds is calculated as of on control cells.

[4] = tested on: H1299; assay: Cellular proliferation assay (Alamar blue), H1299; assay type: cell-based; settings: H1299 cells, 72 hours with compound, 10% FCS; for IC50: Homo sapiens, NCI-H1299, 72 h, read-out: pIC50 H1299 (converted)
Experimental: as §1, §2

[5] = tested on: HCT-116; assay: Cellular proliferation assay (Alamar blue), HCT-116; assay type: cell-based; settings: HCT-116 cells, 72 hours with compound, 10% FCS; for IC50: Homo sapiens, HCT-116, 72 h, read-out: pIC50 HCT-116 (converted)
Experimental: as §1, §2

[6] = molecular target: PLK4 (h) (Homo sapiens, UniProt O00444); assay: PLK-4 human kinase assay (SPA); assay type: biochemical; settings: for IC50: read-out: PLK4 pIC50 (converted)
Sequence of PLK4 (h) (O00444 whole entry): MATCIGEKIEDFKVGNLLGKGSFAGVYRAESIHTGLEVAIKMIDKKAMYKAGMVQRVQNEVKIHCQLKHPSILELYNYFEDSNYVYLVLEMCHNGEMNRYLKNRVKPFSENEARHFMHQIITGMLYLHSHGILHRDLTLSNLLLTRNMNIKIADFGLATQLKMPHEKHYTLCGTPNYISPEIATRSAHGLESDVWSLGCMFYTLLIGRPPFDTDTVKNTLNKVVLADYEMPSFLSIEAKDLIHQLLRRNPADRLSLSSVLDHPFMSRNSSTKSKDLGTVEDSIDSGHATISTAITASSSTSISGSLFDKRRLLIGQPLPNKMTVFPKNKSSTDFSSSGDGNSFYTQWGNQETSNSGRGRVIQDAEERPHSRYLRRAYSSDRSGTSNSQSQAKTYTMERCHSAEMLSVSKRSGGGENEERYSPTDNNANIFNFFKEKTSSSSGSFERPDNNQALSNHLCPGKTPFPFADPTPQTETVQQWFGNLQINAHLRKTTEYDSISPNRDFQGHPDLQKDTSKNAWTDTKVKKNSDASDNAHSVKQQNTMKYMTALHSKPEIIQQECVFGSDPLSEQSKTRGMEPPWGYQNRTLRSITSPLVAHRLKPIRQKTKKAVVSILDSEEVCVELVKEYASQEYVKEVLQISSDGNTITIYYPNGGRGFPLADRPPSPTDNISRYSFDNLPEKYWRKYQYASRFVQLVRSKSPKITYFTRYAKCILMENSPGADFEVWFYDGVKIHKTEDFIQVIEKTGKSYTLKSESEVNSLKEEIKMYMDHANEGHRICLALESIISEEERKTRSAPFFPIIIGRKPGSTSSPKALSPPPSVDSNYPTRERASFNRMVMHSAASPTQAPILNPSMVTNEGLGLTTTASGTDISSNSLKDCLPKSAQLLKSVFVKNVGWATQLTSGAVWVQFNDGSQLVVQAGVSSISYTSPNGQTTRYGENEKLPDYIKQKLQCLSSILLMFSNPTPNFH
Procedure, shortened: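 Radiometric readout: 33P-labelled peptide captured on streptavidin SPA beads after EDTA stop, imaged by Leadseeker. Reaction ran 60 min at room temperature in Hepes pH 8.0 buffer. It contained 1 μM ATP with 2 nM [γ-33P]ATP, 10 μM biotinylated peptide and PLK4 (h) at 19 μg/ml.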

[7] = tested on: A2780; assay: Cellular proliferation assay (Alamar blue), A2780; assay type: cell-based; settings: A2780 cells, 72 hours with compound, 10% FCS; for IC50: Homo sapiens, A2780, 72 h, read-out: pIC50 A2780 (converted)
Experimental: as §1, §2

[8] = molecular target: AuroraB (h) (Homo sapiens, UniProt Q96GD4); assay: Aurora-B human kinase assay (SPA); assay type: biochemical; settings: for IC50: read-out: AuroraB pIC50 (converted)
Sequence of AuroraB (h) (Q96GD4 whole entry): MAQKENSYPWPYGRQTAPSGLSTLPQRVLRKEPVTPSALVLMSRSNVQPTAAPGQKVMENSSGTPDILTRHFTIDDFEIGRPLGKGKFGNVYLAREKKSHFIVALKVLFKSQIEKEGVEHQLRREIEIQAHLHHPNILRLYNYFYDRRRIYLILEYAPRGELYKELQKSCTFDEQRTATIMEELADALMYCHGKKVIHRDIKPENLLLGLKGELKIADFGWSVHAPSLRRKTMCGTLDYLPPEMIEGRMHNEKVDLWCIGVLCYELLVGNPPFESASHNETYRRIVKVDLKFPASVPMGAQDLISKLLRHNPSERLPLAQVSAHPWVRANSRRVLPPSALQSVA
Procedure, shortened: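 33P-phosphorylated biotin-substrate captured on streptavidin PVT SPA beads after EDTA-containing stop and imaged on Leadseeker. Reaction: 60 min at room temperature, Hepes pH 7.5 with Mg2+/Mn2+. Conditions: 0.5 μM ATP plus 2.2 nM [γ-33P]ATP, 3 μM substrate, 0.5 μg/ml human AuroraB.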

[9] = tested on: MDA/MB231; assay: Cellular proliferation assay (Alamar blue), MDA/MB231; assay type: cell-based; settings: MDA/MB231 cells, 72 hours with compound, 10% FCS; for IC50: Homo sapiens, MDA-MB-231, 72 h, read-out: pIC50 MDA/MB231 (converted)
Experimental: as §1, §2

[10] = tested on: PC-3; assay: Cellular proliferation assay (Alamar blue), PC-3; assay type: cell-based; settings: PC-3 cells, 72 hours with compound, 10% FCS; for IC50: Homo sapiens, PC-3, 72 h, read-out: pIC50 PC-3 (converted)
Experimental: as §1, §2

Sequence of GSK3β (h) (P49841 whole entry): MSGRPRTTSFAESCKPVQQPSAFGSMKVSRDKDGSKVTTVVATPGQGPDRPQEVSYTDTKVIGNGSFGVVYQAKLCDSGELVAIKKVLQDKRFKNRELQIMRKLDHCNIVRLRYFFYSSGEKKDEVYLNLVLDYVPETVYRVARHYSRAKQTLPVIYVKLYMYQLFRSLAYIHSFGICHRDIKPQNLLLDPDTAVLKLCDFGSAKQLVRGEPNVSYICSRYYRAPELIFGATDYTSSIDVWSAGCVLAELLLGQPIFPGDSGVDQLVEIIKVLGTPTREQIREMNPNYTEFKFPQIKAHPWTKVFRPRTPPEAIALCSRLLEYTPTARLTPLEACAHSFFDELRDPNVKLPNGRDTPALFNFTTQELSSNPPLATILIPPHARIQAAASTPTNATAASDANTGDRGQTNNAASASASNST

Compound	IC50 [1]	IC50 [2]	IC50 [3]	IC50 [4]	IC50 [5]	IC50 [6]	IC50 [7]	IC50 [10]	IC50 [8]	GSK3B pIC50 [1]	CDK1 pIC50 [2]	pIC50 U87MG [3]	pIC50 H1299 [4]	pIC50 HCT-116 [5]	PLK4 pIC50 [6]	pIC50 A2780 [7]	AuroraB pIC50 [8]	pIC50 MDA/MB231 [9]	pIC50 PC-3 [10]	IC50 [9]
CN1CCCNc2ncnc3c2C(=CNc2cccc(c2)OCCCC1=O)C(=O)N3 (mixture of isomers) [Compound 35]										7.4	6.56	5.50	5.62	5.85	7.01	5.17	6.88	<5	5.31	
COc1ccc2cc1OCCCCC(=O)NCCN(C)c1ncnc3c1C(=CN2)C(=O)N3 (mixture of isomers) [Compound 44]										5.31	<5	<5	<5	<5	5.22	<5	<5	<5	<5	
COc1ccc2cc1OCCCCCC(=O)NCCN(C)c1ncnc3c1C(=CN2)C(=O)N3 (mixture of isomers) [Compound 46]										5.07	<5	5.04	<5	<5	5.18	<5	5.13	<5	<5	
CN1CCCNc2ncnc3c2/C(=C/Nc2ccc(NC(=O)NC4CCCCC4)c(c2)OCCCC1=O)C(=O)N3 [Compound 107]	2000 nM		2.04 µM	0.275 µM	0.17 µM	1050 nM	0.0724 µM	1.58 µM	275 nM											2.34 µM
CN1CCCNc2ncnc3c2/C(=C/Nc2ccc(NC(=O)c4ccccc4)c(c2)OCCCC1=O)C(=O)N3 [Compound 108]	1550 nM		> 10 µM	> 10 µM	> 10 µM	891 nM	> 10 µM	> 10 µM	617 nM											8.32 µM
CN1CCCNc2ncnc3c2/C(=C/Nc2ccc(NS(=O)(=O)c4ccccc4)c(c2)OCCCC1=O)C(=O)N3 [Compound 109]	141 nM		> 10 µM	> 10 µM	0.603 µM	224 nM	0.871 µM	> 10 µM	91.2 nM											> 10 µM
CN1CCCNc2ncnc3c2/C(=C/Nc2ccc(NCc4ccccc4)c(c2)OCCCC1=O)C(=O)N3 [Compound 110]	912 nM		8.71 µM	2.63 µM	1.66 µM	407 nM	1.17 µM	5.01 µM	537 nM											> 10 µM
CN1CCCNc2ncnc3c2/C(=C/Nc2cc(cc(C(F)(F)F)c2)OCCCC1=O)C(=O)N3 [Compound 113]	> 10000 nM	> 10 µM	> 10 µM	> 10 µM	> 10 µM		> 10 µM	> 10 µM	1380 nM											> 10 µM
CN1CCCNc2ncnc3c2/C(=C/Nc2ccc(NC(=O)Nc4ccccc4)c(c2)OCCCC1=O)C(=O)N3 [Compound 158]	3550 nM		1.23 µM	0.55 µM	0.229 µM	2750 nM	0.166 µM	1.32 µM	331 nM											4.37 µM
CN1CCNc2ncnc3c2/C(=C/Nc2cccc(c2)OCC(=O)N2CCC[C@@H]2C1)C(=O)N3 [Compound 168]	7590 nM and 5750 nM		> 10 µM	> 10 µM	> 10 µM	> 10000 nM and 6170 nM	> 10 µM	> 10 µM	> 10000 nM											> 10 µM
CN1CCCNc2ncnc3c2/C(=C/Nc2cccc(c2)OCC(=O)N2CCC[C@@H]2C1)C(=O)N3 [Compound 170]	8910 nM		> 10 µM	> 10 µM	> 10 µM	7410 nM	> 10 µM	> 10 µM	> 10000 nM											> 10 µM
CN1CCCNc2ncnc3c2/C(=C/Nc2cccc(c2)OCC(=O)N[C@H](Cc2ccccc2)C1)C(=O)N3 [Compound 176]	9550 nM		> 10 µM	> 10 µM	> 10 µM	468 nM	> 10 µM	> 10 µM	6760 nM											> 10 µM
CN1CCNc2ncnc3c2/C(=C/Nc2ccc(Cl)c(c2)OCC(=O)N2CCC[C@@H]2C1)C(=O)N3 [Compound 192]	5010 nM		> 10 µM	2.51 µM	2.19 µM	> 10000 nM	3.09 µM	> 10 µM	> 10000 nM											> 10 µM

Continued, in another order:

IC50 [1]	IC50 [2]	IC50 [3]	IC50 [4]	IC50 [5]	IC50 [6]	IC50 [7]	IC50 [10]	IC50 [8]	Compound	GSK3B pIC50 [1]	CDK1 pIC50 [2]	pIC50 U87MG [3]	pIC50 H1299 [4]	pIC50 HCT-116 [5]	PLK4 pIC50 [6]	pIC50 A2780 [7]	AuroraB pIC50 [8]	pIC50 MDA/MB231 [9]	pIC50 PC-3 [10]	IC50 [9]
2510 nM	4.27 µM	> 10 µM	> 10 µM	> 10 µM	2630 nM	> 10 µM	> 10 µM		CN1CCNC(=O)CCCCOc2cccc(c2)N/C=C2\C(=O)Nc3ncnc1c32 [Compound 43]											> 10 µM
2040 nM		> 10 µM	> 10 µM	> 10 µM	417 nM	> 10 µM	> 10 µM	> 10000 nM	C[C@@H]1CN(C)CCCNc2ncnc3c2/C(=C/Nc2cccc(c2)OCC(=O)N1)C(=O)N3 [Compound 99]											> 10 µM
2880 nM		> 10 µM	> 10 µM	> 10 µM	4370 nM	> 10 µM	> 10 µM	> 10000 nM	CN1CCNC(=O)CCCOc2cccc(c2)N/C=C2\C(=O)Nc3ncnc(c32)NCC1 [Compound 159]											> 10 µM
933 nM and 1120 nM		> 10 µM	> 10 µM	5.5 µM	2400 nM	5.89 µM	> 10 µM	6760 nM and 3240 nM	CN1CCNC(=O)COc2cccc(c2)N/C=C2\C(=O)Nc3ncnc(c32)NCC1 [Compound 167]					5.06		5.13				> 10 µM
1860 nM and 3240 nM		7.41 µM	8.32 µM	> 10 µM	1820 nM and 2000 nM	9.12 µM	> 10 µM	3550 nM	CN1CCNc2ncnc3c2/C(=C/Nc2cccc(c2)OCC(=O)N[C@H](Cc2ccccc2)C1)C(=O)N3 [Compound 169]			<5	<5	5.07		5.08				> 10 µM
4070 nM		> 10 µM	> 10 µM	> 10 µM		> 10 µM	> 10 µM	1860 nM	COc1ccc2cc1OCC(=O)NCCN1CCN(CC1)c1ncnc3c1/C(=C/N2)C(=O)N3 [Compound 207]											> 10 µM
